Each compound was assayed against fully phosphorylated, active Mouse ERK2 protein (Mus musculus, UniProt P63085) (assay: Active ERK2 assay (AERK2), IMAP format). Settings: activated ERK2, IMAP fluorescence polarization, 30 μM ATP.
Assay type: biochemical
Procedure: 14 μl of kinase buffer (10 mM Tris.HCl pH 7.2, 10 mM MgCl2, 0.01% Tween-20, 1 mM DTT) containing 0.4 ng unphosphorylated Mouse ERK2 protein was added to each well of a black 384-well assay plate. […] DMSO concentration during initial incubation is 6.7%. […] DMSO concentration during ERK activation was 4%. After one hour, reactions were terminated by addition of 60 μl IMAP detections beads in binding buffer (Molecular Devices). Binding was allowed to equilibrate for 30 minutes before reading the plate on an LJL Analyst Fluorescence Polarization plate reader.
Activated ERK2 activity was also determined in the IMAP assay format using the procedure outlined above. […] Reactions proceeded for 30 minutes before termination by addition of 60 μl IMAP detection beads in binding buffer. Plates were read as above after 30 minute binding equilibration.

Chain of fully phosphorylated, active Mouse ERK2 protein (P63085 whole entry): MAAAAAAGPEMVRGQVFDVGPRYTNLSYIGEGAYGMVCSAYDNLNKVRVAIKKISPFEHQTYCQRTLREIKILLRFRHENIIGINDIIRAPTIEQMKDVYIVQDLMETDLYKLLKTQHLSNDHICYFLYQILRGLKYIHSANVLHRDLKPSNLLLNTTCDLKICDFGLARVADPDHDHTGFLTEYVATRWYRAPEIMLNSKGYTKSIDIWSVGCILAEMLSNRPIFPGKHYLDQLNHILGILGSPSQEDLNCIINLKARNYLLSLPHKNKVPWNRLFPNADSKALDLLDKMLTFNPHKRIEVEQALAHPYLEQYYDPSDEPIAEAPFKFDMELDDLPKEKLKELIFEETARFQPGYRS

Row | IC50 [nM] | Compound
1 | 53 | O=C(Nc1ccc(O)c(-c2ccc(F)cc2)c1)[C@@H]1CCN(CC(=O)N2CCN(c3ccc(-c4ncccn4)cc3)CC2)C1 [Example 212]
2 | 76 | O=C(Nc1ccc(O)c(C(F)(F)F)c1)[C@@H]1CCN(CC(=O)N2CCN(c3ccc(-c4ncccn4)cc3)CC2)C1 [Example 1]
3 | 40 | CC(C)c1cc(NC(=O)[C@@H]2CCN(CC(=O)N3C[C@@H]4C[C@H]3CN4c3ccc(-c4cnccn4)cc3)C2)ccc1O [Example 197]
4 | 57 | C/C(=N\O)c1cnc(-c2ccc(N3CCN(C(=O)CN4CC[C@@H](C(=O)Nc5ccc(O)c(Cl)c5)C4)CC3)cc2)nc1 [Example 23]
5 | 44 | CC(=O)c1cnc(-c2ccc(N3CCN(C(=O)CN4CC[C@@H](C(=O)Nc5ccc(O)c(Cl)c5)C4)CC3)cc2)nc1 [Example 20]
6 | 39 | O=C(Nc1ccc(O)c(C2CC2)c1)[C@@H]1CCN(CC(=O)N2CCN(c3ccc(-c4ncccn4)cc3)CC2)C1 [Example 119]
7 | 34 | O=C(Nc1ccc(O)c(Cl)c1)[C@@H]1CCN(CC(=O)N2C[C@@H]3C[C@H]2CN3c2ccc(-c3ncccn3)cc2)C1 [Example 19]
8 | 38 | CC(C)c1cc(NC(=O)[C@@H]2CCN(CC(=O)N3C[C@@H]4C[C@H]3CN4c3ccc(-c4ncccn4)cc3)C2)ccc1O [Example 196]
9 | 18 | CO/N=C(\C)c1cnc(-c2ccc(N3CCN(C(=O)CN4CC[C@@H](C(=O)Nc5ccc(O)c(Cl)c5)C4)CC3)cc2)nc1 [Example 25]

— patent US7807672B2, “Compounds that are ERK inhibitors” (Schering Corporation, priority 2006, dated 2010)
